Results reported in patent publication US20210161868A1, “ANTI-INFLAMMATORY THERAPY IN ARRHYTHMOGENIC CARDIOMYOPATHY (ACM)” (Beth Israel Deaconess Medical Center, Inc., priority 2018, published 2021).

System: Dsg2^mut/mut mice
Assay: Morphometry, echocardiography and electrocardiography in Dsg2^mut/mut mice
Type: in vivo
Description: All animal studies were in full compliance with policies of Beth Israel Deaconess Medical Center, Johns Hopkins School of Medicine and St. George's University of London. They also conformed to the Guide for the Care and Use of Laboratory Animals from the National Institutes of Health (NIH publication no. 85-23, revised 1996). In vitro studies involved transfection of cultured neonatal rat ventricular myocytes with a mutant allele of the desmosomal protein plakoglobin (2157de12) as previously described.^15 In vivo studies were performed in mice with homozygous knock-in of a mutant form of Dsg2, the gene encoding the desmosomal cadherin desmoglein-2 (Dsg2^mut/mut mice) as previously described.^6 This mutation entails loss of exons 4 and 5 which causes a frameshift and premature termination of translation.
Three cohorts of mice at 8 weeks of age were anesthetized and implanted with subcutaneous osmotic mini-pumps (Alzet, Model 1004). These included: 1) Dsg2^mut/mut mice with pumps containing 50 μg/μL Bay11-7082 in a vehicle of 65% DMSO, 15% ethanol, and 20% saline; 2) Dsg2^mut/mut mice with pumps containing an equivalent volume of vehicle; and 3) wildtype mice with pumps containing vehicle. Mice in cohort 1 received 5 mg/kg/day of Bay11-7082 by continuous infusion; those in cohorts 2 and 3 received an equivalent volume of vehicle each day for 4 weeks. At 12 weeks of age, mice were re-anesthetized and new Alzet pumps were implanted for an additional 4 weeks of treatment.
At the end of the 8 week drug treatment protocol, cardiac function was assessed in all mice by transthoracic echocardiography and electrocardiography (ECG) as previously described. Echocardio-graphic measurements were made according to American Society of Echocardiography guidelines^48 in non-sedated mice using a Vevo 2100 Visualsonic imaging system. Parasternal long-axis views of the left ventricle (LV), at the level of the papillary muscles, were acquired at a sweep speed of 200 mm/second. Three to five measurements were acquired from each mouse and averaged to assess LV function as previously described. ECG measurements made in anesthetized mice in which wire electrodes had been sutured in place in the right and left arms to obtain standard lead I ECG recordings. Recordings were captured via PowerLab and analyzed via the LabChart Pro ECG Analysis Add-on Software (LabChart Pro 8, MLS360/8, AD Intruments). ECGs were recorded for 15 minutes and all ECG wave and amplitude parameters were analyzed as signal averaged ECGs (SAECGs). Following completion of functional studies, mice were euthanized and hearts were excised and processed for additional studies either by freezing fresh tissue (−80C) or fixing tissue in 10% buffered formalin and embedding in paraffin.

[1] = Dsg2^mut/mut + Bay11-7082, n=17, mean±SEM, 8 week treatment
[2] = Dsg2^mut/mut mice, continuous infusion over 8 weeks

Cc1ccc(S(=O)(=O)/C=C/C#N)cc1 [Bay 11-7082]
FS, fractional shortening [1]: 49.5 ± 1.9% | HW/BW, heart weight/body weight [1]: 4.7 ± 0.1 mg/g | IVSd, interventricular septum thickness at end-diastole [1]: 0.95 ± 0.02 mm | LVIDd, left ventricular internal diameter at end-diastole [1]: 2.96 ± 0.06 mm | LVIDs, left ventricular internal diameter at end-systole [1]: 1.50 ± 0.08 mm | LVM, left ventricular mass [1]: 92.9 ± 3.08 mg | P-Amp, P-wave amplitude [1]: 0.06 ± 0.003 mV | PR-I, P-R interval [1]: 39.0 ± 0.9 ms | Pd, P-wave duration [1]: 10.1 ± 0.5 ms | Q-Amp, Q-wave amplitude [1]: −0.06 ± 0.01 mV | QRSd, QRS wave duration [1]: 11.4 ± 0.4 ms | R-Amp, R-wave amplitude [1]: 0.66 ± 0.04 mV | RR-I, R-R interval [1]: 118 ± 2.5 ms | S-Amp, S-wave amplitude [1]: −0.09 ± 0.04 mV | abnormalities in the signal averaged ECG [2]: corrected | contractile function [2]: normalized | treated ACM mice that failed to respond to NFκB inhibition (related to technical failure of drug delivery by Alzet minipumps): 3 of 17
